Source: ChEMBL document CHEMBL1921774, “Evaluation of 18F-labeled benzodioxine piperazine-based dopamine D4 receptor ligands: lipophilicity as a determinate of nonspecific binding” (J Med Chem, 2011)

Key:
[1] = tested on: Lung; experiment: Biodistribution in NMRI mouse lung at 1.1 to 2.6 MBq, iv after 15 mins by gamma counting; type: ADME, organism-based; details: in vivo, 0.25 h
[2] = Chemical stability of the compound on […] oxide gel on TLC plate assessed as half life; type: physicochemical
[3] = tested on: Pancreas; experiment: Biodistribution in NMRI mouse pancreas at 1.1 to 2.6 MBq, iv after 30 mins by gamma counting; type: ADME, organism-based; details: in vivo, 0.5 h
[4] = tested on: Pancreas; experiment: Biodistribution in NMRI mouse pancreas at 1.1 to 2.6 MBq, iv after 15 mins by gamma counting; type: ADME, organism-based; details: in vivo, 0.25 h
[5] = tested on: Brain; experiment: Biodistribution in NMRI mouse brain at 1.1 to 2.6 MBq, iv after 10 mins by gamma counting; type: ADME, organism-based; details: in vivo
[6] = tested on: Heart; experiment: Biodistribution in NMRI mouse heart at 1.1 to 2.6 MBq, iv after 5 mins by gamma counting; type: ADME, organism-based; details: in vivo
[7] = tested on: Blood; experiment: Biodistribution in NMRI mouse blood at 1.1 to 2.6 MBq, iv after 10 mins by gamma counting; type: ADME, organism-based; details: in vivo
[8] = tested on: Intestine; experiment: Biodistribution in NMRI mouse intestine at 1.1 to 2.6 MBq, iv after 30 mins by gamma counting; type: ADME, organism-based; details: in vivo, 0.5 h
[9] = tested on: Pancreas; experiment: Biodistribution in NMRI mouse pancreas at 1.1 to 2.6 MBq, iv after 5 mins by gamma counting; type: ADME, organism-based; details: in vivo
[10] = tested on: Brain; experiment: Biodistribution in NMRI mouse brain at 1.1 to 2.6 MBq, iv after 5 mins by gamma counting; type: ADME, organism-based; details: in vivo
[11] = tested on: Bone; experiment: Biodistribution in NMRI mouse bone at 1.1 to 2.6 MBq, iv after 15 mins by gamma counting; type: ADME, organism-based, Bone element; details: in vivo, 0.25 h
[12] = tested on: Liver; experiment: Biodistribution in NMRI mouse liver at 1.1 to 2.6 MBq, iv after 15 mins by gamma counting; type: ADME, organism-based; details: in vivo, 0.25 h
[13] = tested on: Blood; experiment: Biodistribution in NMRI mouse blood at 1.1 to 2.6 MBq, iv after 30 mins by gamma counting; type: ADME, organism-based; details: in vivo, 0.5 h
[14] = tested on: Heart; experiment: Biodistribution in NMRI mouse heart at 1.1 to 2.6 MBq, iv after 30 mins by gamma counting; type: ADME, organism-based; details: in vivo, 0.5 h
[15] = tested on: Blood; experiment: Biodistribution in NMRI mouse blood at 1.1 to 2.6 MBq, iv after 15 mins by gamma counting; type: ADME, organism-based; details: in vivo, 0.25 h
[16] = tested on: Spleen; experiment: Biodistribution in NMRI mouse spleen at 1.1 to 2.6 MBq, iv after 15 mins by gamma counting; type: ADME, organism-based; details: in vivo, 0.25 h
[17] = tested on: Intestine; experiment: Biodistribution in NMRI mouse intestine at 1.1 to 2.6 MBq, iv after 10 mins by gamma counting; type: ADME, organism-based; details: in vivo
[18] = tested on: Bone; experiment: Biodistribution in NMRI mouse bone at 1.1 to 2.6 MBq, iv after 30 mins by gamma counting; type: ADME, organism-based, Bone element; details: in vivo, 0.5 h
[19] = tested on: Pancreas; experiment: Biodistribution in NMRI mouse pancreas at 1.1 to 2.6 MBq, iv after 10 mins by gamma counting; type: ADME, organism-based; details: in vivo
[20] = tested on: Liver; experiment: Biodistribution in NMRI mouse liver at 1.1 to 2.6 MBq, iv after 5 mins by gamma counting; type: ADME, organism-based; details: in vivo
[21] = tested on: Intestine; experiment: Biodistribution in NMRI mouse intestine at 1.1 to 2.6 MBq, iv after 5 mins by gamma counting; type: ADME, organism-based; details: in vivo
[22] = tested on: Kidney; experiment: Biodistribution in NMRI mouse kidney at 1.1 to 2.6 MBq, iv after 15 mins by gamma counting; type: ADME, organism-based; details: in vivo, 0.25 h
[23] = tested on: Heart; experiment: Biodistribution in NMRI mouse heart at 1.1 to 2.6 MBq, iv after 10 mins by gamma counting; type: ADME, organism-based; details: in vivo
[24] = tested on: Brain; experiment: Drug metabolism in NMRI mouse brain at […], iv measured 10 mins post injection; type: ADME, organism-based; details: in vivo
[25] = tested on: Liver; experiment: Biodistribution in NMRI mouse liver at 1.1 to 2.6 MBq, iv after 10 mins by gamma counting; type: ADME, organism-based; details: in vivo
[26] = tested on: Kidney; experiment: Biodistribution in NMRI mouse kidney at 1.1 to 2.6 MBq, iv after 30 mins by gamma counting; type: ADME, organism-based; details: in vivo, 0.5 h
[27] = tested on: Lung; experiment: Biodistribution in NMRI mouse lung at 1.1 to 2.6 MBq, iv after 30 mins by gamma counting; type: ADME, organism-based; details: in vivo, 0.5 h
[28] = tested on: Bone; experiment: Biodistribution in NMRI mouse bone at 1.1 to 2.6 MBq, iv after 10 mins by gamma counting; type: ADME, organism-based, Bone element; details: in vivo
[29] = tested on: Heart; experiment: Biodistribution in NMRI mouse heart at 1.1 to 2.6 MBq, iv after 15 mins by gamma counting; type: ADME, organism-based; details: in vivo, 0.25 h
[30] = tested on: Spleen; experiment: Biodistribution in NMRI mouse spleen at 1.1 to 2.6 MBq, iv after 10 mins by gamma counting; type: ADME, organism-based; details: in vivo
[31] = tested on: Lung; experiment: Biodistribution in NMRI mouse lung at 1.1 to 2.6 MBq, iv after 10 mins by gamma counting; type: ADME, organism-based; details: in vivo
[32] = tested on: Liver; experiment: Biodistribution in NMRI mouse liver at 1.1 to 2.6 MBq, iv after 30 mins by gamma counting; type: ADME, organism-based; details: in vivo, 0.5 h
[33] = tested on: Brain; experiment: Biodistribution in NMRI mouse brain at 1.1 to 2.6 MBq, iv after 30 mins by gamma counting; type: ADME, organism-based; details: in vivo, 0.5 h
[34] = Chemical stability of the compound on silica gel on TLC plate assessed as half life; type: physicochemical
[35] = tested on: Blood; experiment: Biodistribution in NMRI mouse blood at 1.1 to 2.6 MBq, iv after 5 mins by gamma counting; type: ADME, organism-based; details: in vivo
[36] = tested on: Spleen; experiment: Biodistribution in NMRI mouse spleen at 1.1 to 2.6 MBq, iv after 5 mins by gamma counting; type: ADME, organism-based; details: in vivo
[37] = tested on: Spleen; experiment: Biodistribution in NMRI mouse spleen at 1.1 to 2.6 MBq, iv after 30 mins by gamma counting; type: ADME, organism-based; details: in vivo, 0.5 h
[38] = tested on: Lung; experiment: Biodistribution in NMRI mouse lung at 1.1 to 2.6 MBq, iv after 5 mins by gamma counting; type: ADME, organism-based; details: in vivo
[39] = tested on: Brain; experiment: Biodistribution in NMRI mouse brain at 1.1 to 2.6 MBq, iv after 15 mins by gamma counting; type: ADME, organism-based; details: in vivo, 0.25 h
[40] = tested on: Bone; experiment: Biodistribution in NMRI mouse bone at 1.1 to 2.6 MBq, iv after 5 mins by gamma counting; type: ADME, organism-based, Bone element; details: in vivo
[41] = tested on: Kidney; experiment: Biodistribution in NMRI mouse kidney at 1.1 to 2.6 MBq, iv after 10 mins by gamma counting; type: ADME, organism-based; details: in vivo
[42] = tested on: Kidney; experiment: Biodistribution in NMRI mouse kidney at 1.1 to 2.6 MBq, iv after 5 mins by gamma counting; type: ADME, organism-based; details: in vivo
[43] = tested on: Intestine; experiment: Biodistribution in NMRI mouse intestine at 1.1 to 2.6 MBq, iv after 15 mins by gamma counting; type: ADME, organism-based; details: in vivo, 0.25 h
[44] = tested on: Serum; experiment: Metabolic stability in NMRI mouse serum assessed as remaining radioactivity at 1.1 to 2.6 MBq, iv by TLC analysis; type: ADME, organism-based; details: in vivo

[18F]c1ccc(CN2CCN(c3ccc4c(c3)OCCO4)CC2)cn1
Drug uptake [1]: 4.79 % ID/g | half-life [2]: 50 min | Drug uptake [3]: 7.43 % ID/g | Drug uptake [4]: 6.88 % ID/g | Drug uptake [5]: 2.85 % ID/g | Drug uptake [6]: 1.8 % ID/g | Drug uptake [7]: 1.29 % ID/g | Drug uptake [8]: 4.47 % ID/g | Drug uptake [9]: 8.36 % ID/g | Drug uptake [10]: 4.93 % ID/g | Drug uptake [11]: 2.7 % ID/g | Drug uptake [12]: 5.67 % ID/g | Drug uptake [13]: 0.53 % ID/g | Drug uptake [14]: 1.13 % ID/g | Drug uptake [15]: 1.23 % ID/g | Drug uptake [16]: 3.19 % ID/g | Drug uptake [17]: 2.68 % ID/g | Drug uptake [18]: 0.93 % ID/g | Drug uptake [19]: 11.1 % ID/g | Drug uptake [20]: 4.13 % ID/g | Drug uptake [21]: 2.16 % ID/g | Drug uptake [22]: 4.67 % ID/g | Drug uptake [23]: 0.52 % ID/g | Drug metabolism [24]: Active | Drug uptake [25]: 6.78 % ID/g | Drug uptake [26]: 6.03 % ID/g | Drug uptake [27]: 2.68 % ID/g | Drug uptake [28]: 2.54 % ID/g | Drug uptake [29]: 0.58 % ID/g | Drug uptake [30]: 3.6 % ID/g | Drug uptake [31]: 4.84 % ID/g | Drug uptake [32]: 7.79 % ID/g | Drug uptake [33]: 1.47 % ID/g | half-life [34]: 15 min | Drug uptake [35]: 1.62 % ID/g | Drug uptake [36]: 4.42 % ID/g | Drug uptake [37]: 3.13 % ID/g | Drug uptake [38]: 12.99 % ID/g | Drug uptake [39]: 2.27 % ID/g | Drug uptake [40]: 2.03 % ID/g | Drug uptake [41]: 5.86 % ID/g | Drug uptake [42]: 8.23 % ID/g | Drug uptake [43]: 2.51 % ID/g | Stability [44]: > 98%
